From a melting point compilation (Tetko et al.)

Compared with `O=Cc1csc(-c2cccc(Br)c2)n1`, `Cc1ccc(-c2cc(CBr)on2)cc1` is lower in melting point: 99 to 101 °C for the first, 86 to 88 °C for the second.

Compared with `Cc1nc(Cl)c2cc(-c3ccccc3)sc2n1`, `O=C(O)CSc1nc2cc(-c3ccccc3)sc2c(=O)n1Cc1ccccc1` is higher in melting point: 114 to 116 °C for the first, 320 to 322 °C for the second.

First: COc1ccc2c(c1)OCC(C(=O)O)C2 (stereo unspecified)
Second: O=C(O)C1Cc2cc(F)ccc2O1 (stereo unspecified)
The melting point of the first is higher: 152 to 154 °C for the first, 129 to 131 °C for the second.

First: Cn1c(C(=O)O)cc(Cl)c1Cl
Second: Cn1cc(Cl)cc1C(=O)NN
The melting point of the first is higher: 178 to 180 °C for the first, 168 to 170 °C for the second.

First: CC(C)c1nc(C(=O)O)nn1-c1cccc(F)c1
Second: O=C(O)c1cc2cc(F)ccc2s1
The melting point of the first is lower: 93 to 95 °C for the first, 207 to 209 °C for the second.

Compared with `Cc1cc(Br)ccc1C(=O)N1CCCC(C(=O)O)C1` (stereo unspecified), `COC(=O)COc1ccc(C(=O)O)cc1OC` is higher in melting point: 123 to 125 °C for the first, 170 to 172 °C for the second.

First: CCCc1cc(Cl)n2ncnc2n1
Second: Cc1c(N)cccc1-n1cnnn1
The melting point of the first is lower: 67 to 69 °C for the first, 124 to 126 °C for the second.

First: O=C(O)c1ccc(CNC(=O)C23CC4CC(CC(C4)C2)C3)cc1
Second: O=C(Cc1ccc(F)cc1)N1CCNCC1
The melting point of the first is higher: 195 to 197 °C for the first, 65 to 67 °C for the second.

First: Nc1cc(-c2ccc(F)cc2F)no1
Second: Nc1nnc(Cc2cccc(F)c2)o1
The melting point of the first is lower: 110 to 112 °C for the first, 146 to 148 °C for the second.

First: Cc1oc(-c2ccc(Cl)cc2)nc1C(=O)O
Second: Cc1c(C(=O)O)oc2c(Br)cccc12
The melting point of the first is higher: 235 to 237 °C for the first, 204 to 206 °C for the second.

Compared with `COc1cc(N)ccc1N1CCCC1=O`, `Nc1ccc2c(c1)S(=O)(=O)CC2` is higher in melting point: 126 to 128 °C for the first, 197 to 199 °C for the second.

First: O=C(c1cnoc1)c1ccccc1O
Second: O=C(O)c1ccc(Cl)cc1-n1cccc1
The melting point of the first is lower: 113 to 115 °C for the first, 142 to 144 °C for the second.

First: COc1cc(C(=O)O)cc2c1OCCO2
Second: COc1cc(C(=O)O)cc(OC)c1C(C)C
The melting point of the first is higher: 203 to 205 °C for the first, 164 to 166 °C for the second.

First: Cn1cc(C=O)c(-c2ccncc2)n1
Second: O=Cc1ccc(-n2cncn2)c(F)c1
The melting point of the first is higher: 131 to 133 °C for the first, 127 to 129 °C for the second.

First: CCCn1c(=O)[nH]c(=O)c2c(C(=O)O)cc(-c3ccccc3)nc21
Second: Cn1c(=O)[nH]c2ccccc2c1=O
The melting point of the first is lower: 230 to 232 °C for the first, 242 to 244 °C for the second.

First: COc1cc(C(C)=O)cc(O)c1OC
Second: COc1cc(NC(C)=O)ccc1C(C)=O
The melting point of the first is lower: 59 to 61 °C for the first, 130 to 132 °C for the second.

`CNC(=O)NC1(C(=O)O)CCCC1` and `O=C(O)C1(c2ccc3c(c2)OCCO3)CCCC1` fall in the same range of melting point: 165 to 167 °C for the first, 165 to 167 °C for the second.

First: CC(C)Cn1c(N)c(Br)c(=O)[nH]c1=O
Second: Cn1cc(S(=O)(=O)NN)c(=O)n(C)c1=O
The melting point of the first is higher: 249 to 251 °C for the first, 134 to 136 °C for the second.

Compared with `O=C(Nc1cccc(Cl)c1N1CCOCC1)OCC(F)(F)F`, `NCc1cccnc1N1CCOCC1` is lower in melting point: 74 to 76 °C for the first, 41 to 43 °C for the second.

Compared with `O=C(O)c1ccnc(N2CCCC2)n1`, `CCn1nc(C(=O)O)ccc1=O` is lower in melting point: 205 to 207 °C for the first, 203 to 205 °C for the second.

First: N#Cc1ccc(N2CCN(c3ccccc3)CC2)nc1
Second: NS(=O)(=O)N1CCN(Cc2ccccc2)CC1
The melting point of the first is lower: 131 to 133 °C for the first, 147 to 149 °C for the second.

First: NC(CC(=O)O)c1ccc(-c2ccccc2)cc1 (stereo unspecified)
Second: O=C(O)C(Cc1ccccc1Br)Cc1ccccc1Br
The melting point of the first is higher: 238 to 240 °C for the first, 145 to 147 °C for the second.

First: C#Cc1nc2ccccc2n1C
Second: Nc1ccccc1Cn1cccn1
The melting point of the first is higher: 82 to 84 °C for the first, 56 to 58 °C for the second.

First: CC(C)(O)CN1CCN(C(=O)OC(C)(C)C)CC1
Second: CC(=O)N1CCC(CCl)CC1
The melting point of the first is lower: 33 to 35 °C for the first, 48 to 50 °C for the second.

First: COc1ccc(-n2nc(N)cc2C)cc1
Second: COc1ccc2ccc(O)cc2c1
The melting point of the first is lower: 87 to 89 °C for the first, 116 to 119 °C for the second.

First: O=C1C=CC(=O)N1c1ccccc1Sc1ccccc1
Second: O=C(Cc1cccc(F)c1)c1ccc(Cl)c(Cl)c1
The melting point of the first is lower: 51 to 53 °C for the first, 121 to 123 °C for the second.

First: CCCOc1ccc(/C=C/C(=O)O)cc1
Second: COCCCOc1cccc(C(=O)O)c1
The melting point of the first is higher: 179 to 181 °C for the first, 81 to 83 °C for the second.

First: CCS(=O)(=O)NC(C)C(=O)O (stereo unspecified)
Second: Cc1cc(C(=O)NCC(=O)O)c(C)o1
The melting point of the first is lower: 129 to 131 °C for the first, 179 to 181 °C for the second.

Compared with `Cc1ccc(OC(F)F)c(C(=O)CBr)c1`, `COc1ccc(C(=O)O)cc1OC(F)F` is higher in melting point: 55 to 57 °C for the first, 179 to 181 °C for the second.

First: NC(=O)C1CCCC(N)C1 (stereo unspecified)
Second: O=C1CCCc2cc(C(=O)CCl)ccc2N1
The melting point of the first is lower: 132 to 134 °C for the first, 154 to 156 °C for the second.

First: Nc1ccc(Oc2ccc(CO)cc2)cc1
Second: CC(C)(C)CNc1ccc(C(N)=O)c(Cl)c1
The melting point of the first is lower: 79 to 81 °C for the first, 138 to 140 °C for the second.

First: CCNC(=O)Cn1ccc(N)n1
Second: CCOC(=O)Cc1nc(-c2ccc(OC)c(OC)c2)no1
The melting point of the first is higher: 124 to 126 °C for the first, 75 to 77 °C for the second.

First: Nc1ncc(Br)cc1S(N)(=O)=O
Second: O=S(=O)(Cl)c1cnc(Cl)c(Cl)c1
The melting point of the first is higher: 199 to 201 °C for the first, 46 to 48 °C for the second.

First: O=C(O)CCc1cncc(F)c1
Second: CC(Cl)C(=O)Nc1ccc([N+](=O)[O-])cc1C(F)(F)F (stereo unspecified)
The melting point of the first is lower: 165 to 167 °C for the first, 183 to 185 °C for the second.

Compared with `COc1ccc([N+](=O)[O-])cc1NC(=O)C(C)Cl` (stereo unspecified), `COc1cc(C)nc(C=O)c1` is lower in melting point: 131 to 133 °C for the first, 57 to 59 °C for the second.

In the case of `Nc1ccc(-c2nc(C3CC3)no2)cc1Cl`, the melting point is reported as 97 to 99 °C.
